Counter-ions that a name gives are not always drawn.
How the values were obtained:
[1] = target: T1, reuptake of serotonine (5-HT) in synaptosomes (Rattus norvegicus, UniProt P31652); assay: Inhibition of 5-HT reuptake in synaptosomes; assay type: biochemical; conditions: 3H-5-HT, read-out: 5-HT-uptake IC50
T1 construct: in synaptosomes as described in WO 97/16451 (NeuroSearch A/S); from tissue
Excerpt: (§1) Compounds of the invention may be tested for their ability to inhibit reuptake of the monoamines dopamine, noradrenaline and serotonin in synaptosomes e.g. such as described in WO 97/30997 (NeuroSearch A/S) or WO 97/16451 (NeuroSearch A/S). Based on the balanced activity observed in these tests the compound of the invention is considered useful for the treatment, prevention or alleviation of a disease or a disorder or a condition of a mammal, including a human, which disease, disorder or condition is responsive to inhibition of monoamine neurotransmitter re-uptake in the central nervous system.
(§2) Compounds were tested for their ability to inhibit the reuptake of the monoamine neurotransmitters dopamine (DA) noradrenaline (NA) and serotonine (5-HT) in synaptosomes as described in WO 97/16451 (NeuroSearch A/S).
(§3) The test values are given as IC50 (the concentration (μM) of the test substance which inhibits the specific binding of ^3H-DA, ^3H-NA, or ^3H-5-HT by 50%).

[2] = target: T2, reuptake of dopamine (DA) in synaptosomes (Rattus norvegicus, UniProt P23977); assay: Inhibition of dopamine reuptake in synaptosomes; assay type: biochemical; conditions: 3H-DA, read-out: DA-uptake IC50
T2 construct: in synaptosomes as described in WO 97/16451 (NeuroSearch A/S); from tissue
T2 sequence (P23977 whole entry): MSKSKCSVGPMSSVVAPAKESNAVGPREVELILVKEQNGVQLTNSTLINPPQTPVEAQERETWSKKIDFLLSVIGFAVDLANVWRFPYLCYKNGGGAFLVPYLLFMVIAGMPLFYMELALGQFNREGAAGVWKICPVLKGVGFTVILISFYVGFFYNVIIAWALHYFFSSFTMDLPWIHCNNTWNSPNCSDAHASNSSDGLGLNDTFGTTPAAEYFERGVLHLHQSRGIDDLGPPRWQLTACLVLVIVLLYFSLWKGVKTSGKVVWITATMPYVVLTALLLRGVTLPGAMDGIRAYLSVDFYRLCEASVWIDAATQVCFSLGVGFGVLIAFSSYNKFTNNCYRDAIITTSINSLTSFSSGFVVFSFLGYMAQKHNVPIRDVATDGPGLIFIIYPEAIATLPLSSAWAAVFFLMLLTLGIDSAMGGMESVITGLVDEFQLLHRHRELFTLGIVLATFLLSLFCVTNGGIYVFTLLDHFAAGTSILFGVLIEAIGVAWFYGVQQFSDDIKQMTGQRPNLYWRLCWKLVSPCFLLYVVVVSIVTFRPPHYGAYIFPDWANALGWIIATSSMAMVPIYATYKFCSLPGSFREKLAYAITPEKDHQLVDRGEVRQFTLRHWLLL
Excerpt: as §1, §2, §3

[3] = target: T3, reuptake of noradrenaline (NA) in synaptosomes (Rattus norvegicus, UniProt Q63380); assay: Inhibition of noradrenaline reuptake in synaptosomes; assay type: biochemical; conditions: 3H-NA, read-out: NA-uptake IC50
T3 construct: in synaptosomes as described in WO 97/16451 (NeuroSearch A/S); from tissue
T3 sequence (Q63380 1-617): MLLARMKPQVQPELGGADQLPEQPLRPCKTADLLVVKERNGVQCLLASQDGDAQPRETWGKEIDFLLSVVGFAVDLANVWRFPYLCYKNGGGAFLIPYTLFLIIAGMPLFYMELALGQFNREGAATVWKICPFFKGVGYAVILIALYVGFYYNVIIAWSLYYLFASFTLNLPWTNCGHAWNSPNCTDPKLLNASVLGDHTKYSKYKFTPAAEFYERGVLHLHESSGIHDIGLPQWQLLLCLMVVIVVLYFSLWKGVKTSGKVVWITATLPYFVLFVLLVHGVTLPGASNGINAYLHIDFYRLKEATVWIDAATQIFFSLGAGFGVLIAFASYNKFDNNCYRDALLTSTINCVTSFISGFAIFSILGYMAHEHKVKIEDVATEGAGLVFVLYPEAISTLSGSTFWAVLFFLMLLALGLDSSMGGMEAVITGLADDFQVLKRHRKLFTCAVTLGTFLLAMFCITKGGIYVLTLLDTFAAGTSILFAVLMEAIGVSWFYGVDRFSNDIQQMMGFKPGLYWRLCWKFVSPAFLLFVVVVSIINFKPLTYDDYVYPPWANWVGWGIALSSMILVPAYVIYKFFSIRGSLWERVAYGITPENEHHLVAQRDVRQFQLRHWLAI
Excerpt: as §1, §2, §3

T1 sequence (P31652 whole entry): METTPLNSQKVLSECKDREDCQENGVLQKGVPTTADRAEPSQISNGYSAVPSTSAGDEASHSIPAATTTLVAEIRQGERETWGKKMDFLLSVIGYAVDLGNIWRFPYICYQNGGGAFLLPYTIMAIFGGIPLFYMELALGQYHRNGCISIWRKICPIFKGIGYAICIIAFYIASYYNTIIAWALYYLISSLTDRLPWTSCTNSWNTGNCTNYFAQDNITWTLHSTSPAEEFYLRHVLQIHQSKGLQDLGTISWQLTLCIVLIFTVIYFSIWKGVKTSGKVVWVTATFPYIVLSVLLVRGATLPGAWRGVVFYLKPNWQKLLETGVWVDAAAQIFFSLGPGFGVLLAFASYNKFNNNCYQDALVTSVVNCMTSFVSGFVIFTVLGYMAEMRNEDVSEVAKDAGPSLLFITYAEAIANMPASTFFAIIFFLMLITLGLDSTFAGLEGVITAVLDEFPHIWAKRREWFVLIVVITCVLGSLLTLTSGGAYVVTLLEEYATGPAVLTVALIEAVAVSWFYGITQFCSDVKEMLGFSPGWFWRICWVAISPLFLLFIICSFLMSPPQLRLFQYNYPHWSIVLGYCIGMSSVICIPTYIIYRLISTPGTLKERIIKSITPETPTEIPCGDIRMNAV

IC50 [1] [nM]	IC50 [2] [nM]	IC50 [3] [nM]	melting point [°C]	Compound
8.1	1100	3000	–	Cn1ccc2cc(N3CCN(CCn4c(=O)n(C5=CCCCC5)c5ccccc54)CC3)ccc21 [Compound A2, 1-Cyclohex-1-enyl-3-{2-[4-(1-methyl-1H-indol-5-yl)-piperazin-1-yl]-ethyl}-1,3-dihydro-benzoimidazol-2-one]
–	–	–	92 to 94	O=c1n(CCN2CCN(c3ccc4[nH]ccc4c3)CC2)c2ccccc2n1C1=CCCCC1 (as salt: fumaric acid salt) [Compound A7, 1-Cyclohex-1-enyl-3-{2-[4-(1H-indol-5-yl)-piperazin-1-yl]-ethyl}-1,3-dihydro-benzoimidazol-2-one]
14	> 1000	610	–	C=C(C)n1c(=O)n(CCN2CCN(c3ccc4c(ccn4C)c3)CC2)c2ccccc21 [Compound A1, 1-Isopropenyl-3-{2-[4-(1-methyl-1H-indol-5-yl)-piperazin-1-yl]-ethyl}-1,3-dihydro-benzoimidazol-2-one]
–	–	–	112 to 114	C=C(C)n1c(=O)n(CCN2CCN(c3ccc4[nH]ccc4c3)CC2)c2ccccc21 (as salt: fumaric acid salt) [Compound A8, 1-{2-[4-(1H-Indol-5-yl)-piperazin-1-yl]-ethyl}-3-isopropenyl-1,3-dihydro-benzoimidazol-2-one]
190	2300	1200	–	O=c1n(CCN2CCN(c3ccc4[nH]ccc4c3)CC2)c2ccccc2n1C1=CCCCC1 [Compound A7, 1-Cyclohex-1-enyl-3-{2-[4-(1H-indol-5-yl)-piperazin-1-yl]-ethyl}-1,3-dihydro-benzoimidazol-2-one]
3.3	1700	1100	–	Cn1ccc2ccc(N3CCN(CCn4c(=O)n(C5=CCCCC5)c5ccccc54)CC3)cc21 [Compound A3, 1-Cyclohex-1-enyl-3-{2-[4-(1-methyl-1H-indol-6-yl)-piperazin-1-yl]-ethyl}-1,3-dihydro-benzoimidazol-2-one]
4.8	1300	62	–	C=C(C)n1c(=O)n(CCN2CCN(c3ccc4ccn(C)c4c3)CC2)c2ccccc21 [Compound A4, 1-Isopropenyl-3-{2-[4-(1-methyl-1H-indol-6-yl)-piperazin-1-yl]-ethyl}-1,3-dihydro-benzoimidazol-2-one]
340	> 1000	290	–	C=C(C)n1c(=O)n(CCN2CCN(c3ccc4[nH]ccc4c3)CC2)c2ccccc21 [Compound A8, 1-{2-[4-(1H-Indol-5-yl)-piperazin-1-yl]-ethyl}-3-isopropenyl-1,3-dihydro-benzoimidazol-2-one]
4.4	27	160	171 to 173	O=c1n(CCN2CCN(c3ccc4cc[nH]c4c3)CC2)c2ccccc2n1C1=CCCCC1 [Compound A6, 1-Cyclohex-1-enyl-3-{2-[4-(1H-indol-6-yl)-piperazin-1-yl]-ethyl}-1,3-dihydro-benzoimidazol-2-one]
3.9	1300	110	195 to 197	C=C(C)n1c(=O)n(CCN2CCN(c3ccc4cc[nH]c4c3)CC2)c2ccccc21 [Compound A5]

Reference: patent US20120220604A1, “PIPERAZINYL-ALKYL-BENZOIMIDAZOL-2-ONE DERIVATIVES AND THEIR USE AS MONOAMINE NEUROTRANSMITTER RE-UPTAKE INHIBITORS” (NeuroSearch A/S, priority 2009, published 2012)
